From patent US20170121315A1, “HETEROBICYCLICALLY SUBSTITUTED 4-OXOBUTANE ACID DERIVATIVES AND USE THEREOF” (priority 2014, published 2017)
pIC50: −log10 of the molar value.

Target: T1, human macrophage elastase (HME/hMMP-12) (Homo sapiens, UniProt P39900)
T1 construct: purchased R&D Systems 917-MP
Experiment: In vitro HME inhibition test (standard or high-sensitivity)
Assay type: biochemical
Settings: in some cases mean values, rounded to two significant figures
Experimental: The potency of the compounds according to the invention with respect to HME (MMP-12) is determined in an in vitro inhibition test. The HME-mediated amidolytic cleavage of a suitable peptide substrate leads to an increase in fluorescent light therein. The signal intensity of the fluorescent light is directly proportional to the enzyme activity. The active concentration of a test compound at which half the enzyme is inhibited (50% signal intensity of the fluorescent light) is reported as the IC50 value.
In a 384 hole microtiter plate, in a total test volume of 41 μl, the test buffer (0.1 M HEPES pH 7.4, 0.15 M NaCl, 0.03 M CaCl2, 0.004 mM ZnCl2, 0.02 M EDTA, 0.005% Brij®), the enzyme (0.5 nM HME; R&D Systems, 917-MP, autocatalytic activation according to the manufacturer's instructions) and the intramolecularly quenched substrate [5 μM Mca-Pro-Leu-Gly-Leu-Glu-Glu-Ala-Dap(Dnp)-NH2; Bachem, M-2670] are incubated in the absence and presence of the test substance (as a solution in DMSO) at 37° C. for two hours. The fluorescence intensity of the test mixtures is measured (excitation […], emission 393 nm). The IC50 values are ascertained by plotting the fluorescent light intensity against the active ingredient concentration.
In this case, an enzyme concentration ten times lower is used (final concentration, e.g. 0.05 nM) in order to achieve an increased test sensitivity. The incubation period chosen for the test is correspondingly longer (e.g. 16 hours).

T1 sequence (P39900 106-470): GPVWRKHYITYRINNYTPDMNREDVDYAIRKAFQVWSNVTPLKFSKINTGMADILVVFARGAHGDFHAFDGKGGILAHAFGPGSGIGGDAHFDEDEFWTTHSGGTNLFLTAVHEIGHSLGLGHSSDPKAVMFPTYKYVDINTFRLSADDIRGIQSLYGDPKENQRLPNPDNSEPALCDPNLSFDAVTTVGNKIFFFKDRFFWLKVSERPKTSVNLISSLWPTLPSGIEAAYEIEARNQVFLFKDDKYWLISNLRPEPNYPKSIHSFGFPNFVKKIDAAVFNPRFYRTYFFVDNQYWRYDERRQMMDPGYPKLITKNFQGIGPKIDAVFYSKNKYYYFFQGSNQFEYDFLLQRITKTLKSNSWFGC

Row | pIC50 | Structure (SMILES)
1 | 8.39 | COc1ccc(CCOc2ccc3oc(C(=O)CC(CCn4nnc5ccccc5c4=O)C(=O)O)cc3c2)cc1 (racemic) [Example 3, (+/−)-4-{5-[2-(4-Methoxyphenyl)ethoxy]-1-benzofur-2-yl}-4-oxo-2-[2-(4-oxo-1,2,3-benzotriazin-3(4H)-yl)ethyl]butanoic acid]
2 | 8.37 | Cc1ccccc1CCOc1ccc2oc(C(=O)CC(CCn3nnc4ccccc4c3=O)C(=O)O)cc2c1 (racemic) [Example 4, (+/−)-4-{5-[2-(2-Methylphenyl)ethoxy]-1-benzofur-2-yl}-4-oxo-2-[2-(4-oxo-1,2,3-benzotriazin-3(4H)-yl)ethyl]butanoic acid]
3 | 9.19 | O=C(CC(CCn1nnc2ccccc2c1=O)C(=O)O)c1cc2cc(OCC3(F)CCOCC3)ccc2o1 (racemic) [Example 14, (+/−)-4-{5-[(4-Fluorotetrahydro-2H-pyran-4-yl)methoxy]-1-benzofur-2-yl}-4-oxo-2-[2-(4-oxo-1,2,3-benzotriazin-3(4H)-yl)ethyl]butanoic acid]
4 | 8.32 | N#CCCCOc1ccc2oc(C(=O)CC(CCn3nnc4ccccc4c3=O)C(=O)O)cc2c1 (racemic) [Example 15, (+/−)-4-[5-(3-Cyanopropoxy)-1-benzofur-2-yl]-4-oxo-2-[2-(4-oxo-1,2,3-benzotriazin-3(4H)-yl)ethyl]butanoic acid]
5 | 7.62 | O=C(CC(CCn1nnc2ccccc2c1=O)C(=O)O)c1cc2cc(OCC3CCCC3)ccc2o1 (racemic) [Example 16, (+/−)-4-[5-(Cyclopentylmethoxy)-1-benzofur-2-yl]-4-oxo-2-[2-(4-oxo-1,2,3-benzotriazin-3(4H)-yl)ethyl]butanoic acid]
6 | 8.33 | O=C(CC(CCn1nnc2ccccc2c1=O)C(=O)O)c1cc2cc(OCCc3ccccc3)ccc2o1 (racemic) [Example 19, (+/−)-4-Oxo-2-[2-(4-oxo-1,2,3-benzotriazin-3(4H)-yl)ethyl]-4-[5-(2-phenylethoxy)-1-benzofur-2-yl]butanoic acid]
7 | 8.60 | O=C(CC(CCn1nnc2ccccc2c1=O)C(=O)O)c1cc2cc(OCc3ccc(F)cc3)ccc2o1 (racemic) [Example 22, (+/−)-4-{5-[(4-Fluorobenzyl)oxy]-1-benzofur-2-yl}-4-oxo-2-[2-(4-oxo-1,2,3-benzotriazin-3(4H)-yl)ethyl]butanoic acid]
8 | 9.70 | O=C(CC(CCn1nnc2ccccc2c1=O)C(=O)O)c1cc2cc(OCc3ccc(Cl)c(Cl)c3)ccc2o1 (racemic) [Example 25, (+/−)-4-{5-[(3,4-Dichlorobenzyl)oxy]-1-benzofur-2-yl}-4-oxo-2-[2-(4-oxo-1,2,3-benzotriazin-3(4H)-yl)ethyl]butanoic acid]
9 | 8.51 | O=C(CC(CCn1nnc2ccccc2c1=O)C(=O)O)c1cc2cc(OCc3ccccc3)ccc2o1 (racemic) [Example 28, (+/−)-4-[5-(Benzyloxy)-1-benzofur-2-yl]-4-oxo-2-[2-(4-oxo-1,2,3-benzotriazin-3(4H)-yl)ethyl]butanoic acid]
10 | 8.70 | NC(=O)c1ccc(COc2ccc3oc(C(=O)CC(CCn4nnc5ccccc5c4=O)C(=O)O)cc3c2)cc1 (racemic) [Example 35, (+/−)-4-{5-[(4-Carbamoylbenzyl)oxy]-1-benzofur-2-yl}-4-oxo-2-[2-(4-oxo-1,2,3-benzotriazin-3(4H)-yl)ethyl]butanoic acid]
11 | 9.48 | O=C(CC(CCn1nnc2ccccc2c1=O)C(=O)O)c1cc2cc(OCc3ccc4nonc4c3)ccc2o1 (racemic) [Example 36, (+/−)-4-[5-(2,1,3-Benzoxadiazol-5-ylmethoxy)-1-benzofur-2-yl]-4-oxo-2-[2-(4-oxo-1,2,3-benzotriazin-3(4H)-yl)ethyl]butanoic acid]
12 | 8.34 | CC(C)CCCOc1ccc2oc(C(=O)CC(CCn3nnc4ccccc4c3=O)C(=O)O)cc2c1 (racemic) [Example 40, (+/−)-4-{5-[(4-Methylpentyl)oxy]-1-benzofur-2-yl}-4-oxo-2-[2-(4-oxo-1,2,3-benzotriazin-3(4H)-yl)ethyl]butanoic acid]
13 | 8.41 | CC(C)CCCCOc1ccc2oc(C(=O)CC(CCn3nnc4ccccc4c3=O)C(=O)O)cc2c1 (racemic) [Example 41, (+/−)-4-{5-[(5-Methylhexyl)oxy]-1-benzofur-2-yl}-4-oxo-2-[2-(4-oxo-1,2,3-benzotriazin-3(4H)-yl)ethyl]butanoic acid]
14 | 8.49 | O=C(CC(CCn1nnc2ccccc2c1=O)C(=O)O)c1cc2cc(OCCCc3ccc(C(F)(F)F)cc3)ccc2o1 (racemic) [Example 42, (+/−)-4-Oxo-2-[2-(4-oxo-1,2,3-benzotriazin-3(4H)-yl)ethyl]-4-(5-{3-[4-(trifluoromethyl)phenyl]propoxy}-1-benzofur-2-yl)butanoic acid]
15 | 8.89 | O=C(CC(CCn1nnc2ccccc2c1=O)C(=O)O)c1cc2cc(OCc3cccc(F)c3)ccc2o1 (racemic) [Example 43, (+/−)-4-{5-[(3-Fluorobenzyl)oxy]-1-benzofur-2-yl}-4-oxo-2-[2-(4-oxo-1,2,3-benzotriazin-3(4H)-yl)ethyl]butanoic acid]
16 | 8.64 | O=C(CC(CCn1nnc2ccccc2c1=O)C(=O)O)c1cc2cc(OCc3ccccc3F)ccc2o1 (racemic) [Example 45, (+/−)-4-{5-[(2-Fluorobenzyl)oxy]-1-benzofur-2-yl}-4-oxo-2-[2-(4-oxo-1,2,3-benzotriazin-3(4H)-yl)ethyl]butanoic acid]
17 | 8.72 | O=C(CC(CCn1nnc2ccccc2c1=O)C(=O)O)c1cc2cc(OCCCc3cccs3)ccc2o1 (racemic) [Example 46, (+/−)-4-Oxo-2-[2-(4-oxo-1,2,3-benzotriazin-3(4H)-yl)ethyl]-4-{5-[3-(2-thienyl)propoxy]-1-benzofur-2-yl}butanoic acid]
18 | 9.03 | O=C(CC(CCn1nnc2ccccc2c1=O)C(=O)O)c1cc2cc(OCc3ccncc3)ccc2o1 (racemic) [Example 47, (+/−)-4-Oxo-2-[2-(4-oxo-1,2,3-benzotriazin-3(4H)-yl)ethyl]-4-[5-(pyridin-4-ylmethoxy)-1-benzofur-2-yl]butanoic acid]
19 | 8.40 | Cc1c(COc2ccc3oc(C(=O)CC(CCn4nnc5ccccc5c4=O)C(=O)O)cc3c2)cccc1C(F)(F)F (racemic) [Example 48, (+/−)-4-(5-{[2-Methyl-3-(trifluoromethyl)benzyl]oxy}-1-benzofur-2-yl)-4-oxo-2-[2-(4-oxo-1,2,3-benzotriazin-3(4H)-yl)ethyl]butanoic acid]
20 | 9.26 | O=C(CC(CCn1nnc2ccccc2c1=O)C(=O)O)c1cc2cc(OCc3cc(F)ccc3F)ccc2o1 (racemic) [Example 49, (+/−)-4-{5-[(2,5-Difluorobenzyl)oxy]-1-benzofur-2-yl}-4-oxo-2-[2-(4-oxo-1,2,3-benzotriazin-3(4H)-yl)ethyl]butanoic acid]
21 | 8.68 | O=C(CC(CCn1nnc2ccccc2c1=O)C(=O)O)c1cc2cc(OCc3ccc(F)cc3F)ccc2o1 (racemic) [Example 52, (+/−)-4-{5-[(2,4-Difluorobenzyl)oxy]-1-benzofur-2-yl}-4-oxo-2-[2-(4-oxo-1,2,3-benzotriazin-3(4H)-yl)ethyl]butanoic acid]

Row | Structure (SMILES) | pIC50
22 | O=C(CC(CCn1nnc2ccccc2c1=O)C(=O)O)c1cc2cc(OCCCC(F)(F)F)ccc2o1 (racemic) [Example 11, (+/−)-4-Oxo-2-[2-(4-oxo-1,2,3-benzotriazin-3(4H)-yl)ethyl]-4-[5-(4,4,4-trifluorobutoxy)-1-benzofur-2-yl]butanoic acid] | 8.37
